In patent US12105070B2, “LC-MS/MS method for measurement of Aloesin in rat plasma” (HAINAN MEDICAL UNIVERSITY, priority 2020, dated 2024):

Tests used:
[1] = Stability of aloesin in plasma samples (LC-MS/MS quality control samples); assay type: in vitro ADME, rat
Experimental: Prepare 3 concentrations of aloesin quality control samples (500 ng·mL^−1, 50 ng·mL^−1, 3 ng·mL^−1) with blank plasma, and examine the stability under the following conditions.
(1) After the sample is processed, it is placed in the autosampler for 8 hours, and then the sample is injected for analysis;
(2) The sample is processed after 3 freeze-thaw cycles, and the sample is injected for analysis;
(3) The sample is placed at room temperature for 4 hours and then comes out, and the sample is injected for analysis;
(4) The sample is processed after the sample is stored at −20° C. for 15 days, and then the sample is injected for analysis.
The stability inspection is qualified.

[2] = toxicological studies, no details given; cited from earlier work

SMILES: CC(=O)Cc1cc(=O)c2c(C)cc(O)c([C@@H]3O[C@H](CO)[C@@H](O)[C@H](O)[C@H]3O)c2o1 [aloesin]
- Accuracy ([1]; 3 ng·ml^-1 in plasma, 3 freeze-thaw cycles): 109.60%
- Accuracy ([1]; 3 ng·ml^-1 in plasma, processed sample in autosampler 8 h): 109.20%
- Accuracy ([1]; 3 ng·ml^-1 in plasma, room temperature for 4 hours): 106.18%
- Accuracy ([1]; 3 ng·ml^-1 in plasma, stored at -20° C. for 15 days): 108.00%
- Accuracy ([1]; 50 ng·ml^-1 in plasma, 3 freeze-thaw cycles): 109.40%
- Accuracy ([1]; 50 ng·ml^-1 in plasma, processed sample in autosampler 8 h): 108.20%
- Accuracy ([1]; 50 ng·ml^-1 in plasma, room temperature for 4 hours): 105.20%
- Accuracy ([1]; 50 ng·ml^-1 in plasma, stored at -20° C. for 15 days): 100.14%
- Accuracy ([1]; 500 ng·ml^-1 in plasma, 3 freeze-thaw cycles): 105.20%
- Accuracy ([1]; 500 ng·ml^-1 in plasma, processed sample in autosampler 8 h): 102.60%
- Accuracy ([1]; 500 ng·ml^-1 in plasma, room temperature for 4 hours): 101.80%
- Accuracy ([1]; 500 ng·ml^-1 in plasma, stored at -20° C. for 15 days): 94.66%
- toxic side effects [2]: basically no toxic side effects
